Measured values reported in patent US20260174858A1, “TARGETING THE m6A MRNA DEMETHYLASE FTO” (University of Virginia Patent Foundation, priority 2022, published 2026).
d = 2'-deoxy (DNA); r = 2'-OH (RNA); {P} = phosphate

Tested on: mouse BMDMs
Assay: VEGFA release in mouse BMDMs (ELISA)
Type: cell-based
Conditions: ELISA
Protocol: Primary WT or mutant mouse bone marrow derived macrophages (BMDMs) were isolated as previously described (4). BMDMs were cultured in IMDM (Gibco) basal medium containing 10% fetal bovine serum (FBS), 30% L929 supernatants, nonessential amino acids, sodium pyruvate, 2-mercaptoethanol, and antibiotics. THP-1 cells were cultured in RPMI 1640 medium with 10% FBS and antibiotics. Human RPE cells were isolated as previously described and cultured in DMEM medium with 10% FBS and antibiotics. All cells were maintained at 37° C. in a 5% CO2 environment.
The RPE-choroid complex was isolated from mouse eyes on day 3 after laser injury and treatment with FTO inhibitor or vehicle. Eye tissues were lysed by sonication with immunoprecipitation assay (RIPA) buffer (Sigma-Aldrich, R0278, USA) containing protease inhibitor (Sigma-Aldrich, 11836170001, USA), on ice for 15 minutes. The lysate was centrifuged at 20,000×g for 15 minutes at 4° C., and total protein in the lysates was quantified using the Thermo Scientific™ Pierce™ BCA™ Protein Assay (Fisher Scientific, PI23225, USA). VEGFA protein levels in the supernatants were measured by VEGF DuoSet ELISA (R&D Systems, DY493, USA), following the manufacturer's instructions. Mouse BMDMs or human THP-1 cells (5×10^5 cells per well) were plated into six-well plates in complete medium and allowed to adhere overnight. Cells were then incubated for 24 hours in the absence or presence of various doses of FTO inhibitor or METTL3 inhibitors (STM2457, Selleck Chemicals). […] The siRNAs (siFto: 5′-P.G.A.G.G.A.U.C.C.A.A.G.G.C.A.A.A.G.A.U.dT.dT 3′ (SEQ ID NO: 38); siCtrl: 5′-P.U.A.A.G.G.C.U.A.U.G.A.A.G.A.G.A.U.dT.dT 3′; SEQ ID NO: 39), were designed and synthesized by GE Healthcare Dharmacon, were transfected twice with BMDMs by using DharmaFECT 4 Transfection Reagent (Dharmacon, T-2004, USA). VEGFA levels in the supernatants were measured by mouse or human VEGF DuoSet ELISA (R&D Systems, DY493 or DY293B, USA), following the manufacturer's instructions.

Substance | VEGFA release with METTL3 inhibitor (various doses, 24 hours) | VEGFA release after Fto knockdown (BMDMs transfected with siRNA targeting Fto vs control)
STM2457 | dose-dependent increase in VEGFA release | 
siFto: siFto: 5′-P.G.A.G.G.A.U.C.C.A.A.G.G.C.A.A.A.G.A.U.dT.dT 3′ (SEQ ID NO: 38), Dharmacon (sense GAGGAUCCAAGGCAAAGAUTT; sugars from the 5' end r19 d2, 5' {P}, backbone not given here) |  | significantly dampened macrophage mediated VEGFA release
